Test results as given in paper PMC12113347, “Compound 3d Attenuates Metabolic Dysfunction-Associated Steatohepatitis via Peroxisome Proliferator-Activated Receptor Pathway Activation and Inhibition of Inflammatory and Apoptotic Signaling” (Metabolites, 2025).

How the values were obtained:
L02 cells [1] = test: ROS assay (DCFH-DA, flow cytometry) in FFA-treated L02 cells; format: cell-based, human; conditions: FFA-induced L02 cells
From the text: (§1) L02 cells were inoculated in 6-well plates at 1 × 10^5 cells/mL, and after completing the lipid-accumulating cell modeling treatment according to the method described in 2.1, the cells were collected and washed with 1× PBS buffer.
Reactive oxygen species (ROS) assay: ROS production was detected in the collected cells using a DCFH-DA fluorescent probe diluted in serum-free medium, and the stained cells were washed with 1× PBS buffer 3 times and then analyzed by flow cytometry.

L02 cells [2] = test: Mitochondrial membrane potential test (JC-1) in FFA-treated L02 cells; format: cell-based, human; conditions: FFA-induced depolarization; 3d 20 μM
Protocol: as §1
Mitochondrial membrane potential (MMP) test: After the cells were co-incubated with FFAs and drugs for 24 h, the remaining medium was discarded and the cells were washed with 1× PBS buffer before being treated with JC-1 probe dye. A laser confocal microscope was used to take photographs, which were quantitatively analyzed using ImageJ software (V. 1.52a, Wayne Rasband National Institutes of Health, Bethesda, MD, USA).

C57BL/6J male mice = test: HFD-induced MASH model in mice: serum and liver biochemistry, body and liver weight, histology; format: in vivo
Protocol: All animal studies were conducted in accordance with national legislation and local guidelines at the Center for Laboratory Animals in Tianjin University of Science and Technology and approved by the Animal Ethics Committee of Tianjin University of Science and Technology (8 March 2022, Tianjin, China). The C57BL/6J male mice (6 weeks) were purchased from Henan Scribex Biotechnology Co, Ltd (Zhenzhou, China). Following a one-week period of acclimatization, the mice were fed a high-fat diet (HFD) comprising 60% fat (TP23300, Trophic Animal Feed High-Tech Co., Ltd., (Nantong, China)) and a low-fat control diet (TP23302, Trophic Animal Feed High-Tech Co., Ltd., (Nantong, China)) for 16 weeks.
After 16 weeks of continuous feeding on a high-fat diet, key indicators were tested to determine modeling success and drug administration was initiated. The mice were randomly divided into seven groups (n = 10) according to their body weight. The groups were as follows: control group (control diet, 0.5% CMC-Na), model group (HFD, 0.5% CMC-Na), positive control group (HFD, 100 mg/kg Fenofibrate), elafibranor group (HFD, 30 mg/kg), and 3d group (HFD, 3, 10, 30 mg/kg). The experiment was conducted over a period of eight weeks.
After fasting for 12 h, the mice were anaesthetized and blood samples were collected, as were the mice liver tissues. The ileal contents were collected and immediately frozen in liquid nitrogen and then transferred to storage at −80 °C. The blood samples were subjected to centrifugation at 3000 rpm/min for 10 min to obtain supernatant serum, which was stored at −80 °C. The liver tissues were weighed, and a portion of the liver was preserved in 4% paraformaldehyde for subsequent pathological sectioning, including staining with H&E, Masson, and Oil Red O. The remaining samples were stored at −80 °C for testing of various biochemical indices.
The serum levels of TG, total cholesterol (TC), low-density lipoprotein cholesterol (LDL-C), […] aminotransferase (AST), ALT, and TNF-α were determined according to the instructions of the kit. The levels of glutathione (GSH) and superoxide dismutase (SOD) were measured using liver tissue homogenates. The kits were purchased from the Nanjing Jiancheng Institute of Biological Engineering (Nanjing, China).

[3] = system: PPAR signaling pathway and p38 MAPK pathway proteins; test: Proteomics and Western blotting of liver tissue of HFD mice (PPAR pathway, p38 MAPK and apoptosis proteins); format: in vivo
Protocol: Proteome sequencing of liver tissue samples was performed according to the specific requirements of the protocol by Beijing Qinglian Baiao Biotechnology Co., Ltd. (Beijing, China). Mouse fecal samples were collected and frozen in liquid nitrogen and stored at −80 °C.
Proteins were extracted using RIPA lysate and a BCA kit for protein concentration, separated by SDS-PAGE gel electrophoresis, and transferred to PVDF membranes. The membranes were sealed with 5% skimmed milk and incubated at 4 °C overnight with primary antibodies, followed by co-incubation with the corresponding secondary antibodies. The protein bands were imaged using an infrared laser imager and quantitatively analyzed by ImageJ software. The antibodies used for Western blot were Acox1 (Abcam, ab184032), Acaa1 (Abcam, ab154091), EHHADH (Abcam, ab123490), PPARγ (Abcam, ab272718), PPARα (Abcam, ab314112), PPARδ (Abcam, ab178866), P38 (Abcam, ab31828), p-P38 (Abcam, ab195049), Bcl-2 (Abcam, ab182858), Caspase8 (Abcam, ab25901), anti-rabbit IgG (CST, 7074 S), and α-tubulin (Abcam, ab7291).

[4] = In vitro stability in DMEM medium, simulated gastric fluid and simulated intestinal fluid (HPLC); format: in vitro ADME; conditions: 40 μM, 37 °C
Protocol: Elafibranor and 3d (40 μM) were dissolved in DMEM medium, as well as in simulated gastric fluid (SGF) and simulated intestinal fluid (SIF), respectively, at 37 °C. The concentration of the compounds was determined within 24 h by HPLC. The HPLC conditions comprised an ACQUITY UPLC BEH C18 column maintained at 40 °C with a mobile phase consisting of 20% ultrapure water and 80% acetonitrile, with a flow rate of 1 mL/min at 360 nm.

[5] = HFD mice, liver tissue homogenates
[6] = HFD-fed mice, 30 mg/kg, p < 0.05 vs. model
[7] = HFD mice liver, Western blot, Figure 7A

CNc1ccc(C(=O)/C=C/c2cc(C)c(OC(C)(C)C(=O)OC(C)(C)C)c(C)c2)cc1 [3d]
intracellular ROS levels (L02 cells [1]): significant decrease in ROS levels
mitochondrial membrane potential (L02 cells [2]): partially restored
liver fibrosis (Masson staining) (C57BL/6J male mice; HFD mice): successfully reversed
liver steatosis and lipid accumulation (HE, Oil Red O sections) (C57BL/6J male mice; HFD mice): significantly reduce the steatosis and ballooning in the liver and bring it back to normal
serum TNF-α levels (C57BL/6J male mice; HFD mice): reversed and returned to normal levels
serum levels of LDL-C (C57BL/6J male mice; HFD mice): markedly diminish
body weight (C57BL/6J male mice; HFD mice, 8 weeks of treatment): no significant effect
serum TG levels (C57BL/6J male mice; HFD mice, 8 weeks, fenofibrate 100 mg/kg, elafibranor 30 mg/kg, 3d 3, 10, 30 mg/kg): decreased and returned to normal levels
liver GSH content (C57BL/6J male mice; [5]): counteracting the reduction
liver SOD content (C57BL/6J male mice; [5]): counteracting the reduction
TC levels (C57BL/6J male mice; HFD mice, 3d 3, 10, 30 mg/kg): dose-dependent reduction
serum ALT activity (C57BL/6J male mice; HFD mice, 3d 3, 10, 30 mg/kg): dose-dependent reduction
serum AST activity (C57BL/6J male mice; HFD mice, 3d 3, 10, 30 mg/kg): dose-dependent reduction
serum LDL-C decline (C57BL/6J male mice; [6]): 45%
serum TC reduction (C57BL/6J male mice; [6]): 32%
serum TG decrease (C57BL/6J male mice; [6]): 39%
serum TNF-α reduction (C57BL/6J male mice; [6]): 57%
activation of caspase 8 [3, 7]: reversed the activation
expression of the anti-apoptotic protein Bcl-2 [3, 7]: significantly up-regulated
degree of P38 phosphorylation ([3]; HFD mice liver, Western blot, Figure 7B): significantly reduced
upregulation of Acox1, EHHADH, Acaa1 ([3]; HFD mice liver, p < 0.001): 2.3–3.1 fold
decrease in caspase-8 ([3]; HFD mice liver, p < 0.01): 61%
increase in Bcl-2 ([3]; HFD mice liver, p < 0.01): 1.8 fold
reduction in p-p38 ([3]; HFD mice liver, p < 0.01): 54%
PPAR-related proteins (PPAR α, γ, δ, Acox1, EHHADH, Acaa1) in liver tissues ([3]; HFD mice, Western blot, Figure 6B): decreasing trend of PPAR-related proteins was significantly reversed
concentration in culture medium (stability) ([4]; DMEM, within 24 h): remained relatively constant
concentration in gastric fluid (stability) ([4]; SGF): decreased significantly after 60 min
concentration in intestinal fluid (stability) ([4]; SIF, within 24 h): remained relatively constant
